Earlier results in patent US20130108599A1, “Herbal Vaginal Compositions” (priority 2011, published 2013).

Experiments:
[1] = system: Candida albicans (KCTC 7270)
[2] = system: vaginal pathogens

Row | Structure (SMILES) | growth of C. albicans [1] | anti-microbial activity among the catechins [2]
1 | Cn1c(=O)c2c(ncn2C)n(C)c1=O [caffeine] | strongly inhibited | 
2 | O=C(O[C@@H]1Cc2c(O)cc(O)cc2O[C@@H]1c1cc(O)c(O)c(O)c1)c1cc(O)c(O)c(O)c1 [epigallocatechin gallate] |  | strongest anti-microbial activity
